# Results as given in BindingDB's records for doi:10.1016/j.bmc.2009.07.047 (4Sc, 2009).
# Assay: Inhibition of Aurora-B in human HCT116 cells by FACS-based endoreduplication assay
row,Structure (SMILES),EC50 [µM]
1,COc1cc2c(Nc3ccc(-c4nc5ccccc5s4)c(Cl)c3)ncnc2cc1OCCCN1CCN(C)CC1 [N-(4-(benzo[d]thiazol-2-yl)-3-chlorophenyl)-6-methoxy-7-(3-(4-methylpiperazin-1-yl)propoxy)quinazolin-4-amine],> 10
2,COc1cc2c(Oc3ccc(-c4nc5ccccc5s4)cc3)ncnc2cc1OCCCN1CCCC1 [2-(4-(6-methoxy-7-(3-(pyrrolidin-1-yl)propoxy)quinazolin-4-yloxy)phenyl)benzo[d]thiazole],> 10
3,COc1cc2c(Nc3ccc(-c4nc5cc(Cl)ccc5s4)cc3)ncnc2cc1OCCCN1CCN(C)CC1 [N-[4-(6''-Chlorobenzo[d]thiazol-2''-yl)phenyl]-6'-methoxy-7'-[3-(4-methylpiperazin-1-yl)propoxy]quinazolin-4'-amine],> 10
4,COc1cc2c(Nc3ccc(-c4nc5ccccc5s4)c(F)c3)ncnc2cc1OCCCN1CCN(C)CC1 [N-(4-(benzo[d]thiazol-2-yl)-3-fluorophenyl)-6-methoxy-7-(3-(4-methylpiperazin-1-yl)propoxy)quinazolin-4-amine],> 10
5,COc1cc2c(Oc3ccc(-c4nc5ccccc5s4)cc3)ncnc2cc1OCCCN1CCN(C)CC1 [2-(4-(6-methoxy-7-(3-(4-methylpiperazin-1-yl)propoxy)quinazolin-4-yloxy)phenyl)benzo[d]thiazole],> 10
